System: MV-4-11 cells
Assay: Gene expression microarray analysis (Affymetrix PrimeView) and GSEA
Format: cell-based, human
Design: RFU PODN (11730768_x_at) / Fold change /veh PODN (11730768_x_at) / RFU LINC00158 (11744669_a_at) / Fold change /veh LINC00158 (11744669_a_at) / RFU DUSP10 (11751237_a_at) / Fold change /veh DUSP10 (11751237_a_at) / RFU ID3 (11757404_x_at) / Fold change /veh ID3 (11757404_x_at) / RFU PLEKHG5 (11737974_s_at) / Fold change /veh PLEKHG5 (11737974_s_at) / RFU LRRC4B (11730491_at) / Fold change /veh LRRC4B (11730491_at) / RFU GIMAP4 (11747438_a_at) / Fold change /veh GIMAP4 (11747438_a_at) / RFU KRT8 (11758183_x_at) / Fold change /veh KRT8 (11758183_x_at) / RFU CNN1 (11734310_a_at) / Fold change /veh CNN1 (11734310_a_at) / RFU VPS37D (11726825_at) / Fold change /veh VPS37D (11726825_at) / RFU C10orf10 (11716522_x_at) / Fold change /veh C10orf10 (11716522_x_at) / RFU KIR2DL2 /// KIR2DL4 /// KIR2DL5A /// KIR2DL5B /// KIR2DS1 /// KIR2DS2 /// KIR2DS3 /// KIR2DS4 /// KIR3DL3 /// KIR3DL3 /// KIR3DS1 (11738374_at) / Fold change /veh KIR2DL2 /// KIR2DL4 /// KIR2DL5A /// KIR2DL5B /// KIR2DS1 /// KIR2DS2 /// KIR2DS3 /// KIR2DS4 /// KIR3DL3 /// KIR3DL3 /// KIR3DS1 (11738374_at) / RFU C1QL1 (11718748_at) / Fold change /veh C1QL1 (11718748_at) / RFU TMPRSS4 (11747572_a_at) / Fold change /veh TMPRSS4 (11747572_a_at) / RFU HAMP (11756126_x_at) / Fold change /veh HAMP (11756126_x_at) / RFU RNFT2 (11725882_a_at) / Fold change /veh RNFT2 (11725882_a_at) / RFU NR4A2 (11747474_a_at) / Fold change /veh NR4A2 (11747474_a_at) / RFU ABCC12 (11746883_a_at) / Fold change /veh ABCC12 (11746883_a_at) / RFU TMEM136 (11760407_x_at) / Fold change /veh TMEM136 (11760407_x_at) / RFU CLDN22 /// WWC2 (11732394_at) / Fold change /veh CLDN22 /// WWC2 (11732394_at) / RFU HLA-DPB1 (11760878_x_at) / Fold change /veh HLA-DPB1 (11760878_x_at) / RFU SPINT1 (11716480_a_at) / Fold change /veh SPINT1 (11716480_a_at) / RFU GAP43 (11754022_s_at) / Fold change /veh GAP43 (11754022_s_at) / RFU A4GNT (11735810_at) / Fold change /veh A4GNT (11735810_at) / RFU PRB3 (11715151_x_at) / Fold change /veh PRB3 (11715151_x_at) / RFU TUBB4B (11761932_at) / Fold change /veh TUBB4B (11761932_at) / RFU CAPN14 (11732068_a_at) / Fold change /veh CAPN14 (11732068_a_at) / RFU TMCC2 (11721928_a_at) / Fold change /veh TMCC2 (11721928_a_at) / RFU IRGQ (11745062_a_at) / Fold change /veh IRGQ (11745062_a_at) / RFU FAM174B (11720279_a_at) / Fold change /veh FAM174B (11720279_a_at) / RFU TMPRSS4 (11748680_a_at) / Fold change /veh TMPRSS4 (11748680_a_at) / RFU FAM212B (11763350_a_at) / Fold change /veh FAM212B (11763350_a_at) / RFU PLEKHG5 (11743358_a_at) / Fold change /veh PLEKHG5 (11743358_a_at) / RFU ZSCAN30 (11745921_a_at) / Fold change /veh ZSCAN30 (11745921_a_at) / RFU CMKLR1 (11741424_a_at) / Fold change /veh CMKLR1 (11741424_a_at) / RFU LOC101060620 /// MAPK8IP1 (11723275_at) / Fold change /veh LOC101060620 /// MAPK8IP1 (11723275_at) / RFU SPTSSB (11747773_x_at) / Fold change /veh SPTSSB (11747773_x_at) / RFU PRSS12 (11739890_at) / Fold change /veh PRSS12 (11739890_at) / RFU BIN1 (11741810_x_at) / Fold change /veh BIN1 (11741810_x_at) / RFU WNT11 (11732464_a_at) / Fold change /veh WNT11 (11732464_a_at) / RFU C10orf10 (11716521_a_at) / Fold change /veh C10orf10 (11716521_a_at) / RFU C5orf56 (11738089_at) / Fold change /veh C5orf56 (11738089_at) / RFU CYB561 (11721691_x_at) / Fold change /veh CYB561 (11721691_x_at) / RFU ANKRD19P (11752326_a_at) / Fold change /veh ANKRD19P (11752326_a_at) / RFU OR2T12 /// OR2T33 /// OR2T8 (11738714_s_at) / Fold change /veh OR2T12 /// OR2T33 /// OR2T8 (11738714_s_at) / RFU VCAN (11748164_a_at) / Fold change /veh VCAN (11748164_a_at) / RFU JSRP1 (11732532_at) / Fold change /veh JSRP1 (11732532_at) / RFU KRTAP10-11 (11738290_x_at) / Fold change /veh KRTAP10-11 (11738290_x_at) / RFU MYO3A (11730013_a_at) / Fold change /veh MYO3A (11730013_a_at) / RFU EBF3 (11725865_a_at) / Fold change /veh EBF3 (11725865_a_at) / RFU CAMK2N1 (11719241_x_at) / Fold change /veh CAMK2N1 (11719241_x_at) / RFU C5orf56 (11738088_a_at) / Fold change /veh C5orf56 (11738088_a_at) / RFU OLFML3 (11715873_a_at) / Fold change /veh OLFML3 (11715873_a_at) / RFU LOC100653217 /// NTM (11731650_a_at) / Fold change /veh LOC100653217 /// NTM (11731650_a_at) / RFU MAPK11 (11762145_a_at) / Fold change /veh MAPK11 (11762145_a_at) / RFU FIZ1 (11724087_x_at) / Fold change /veh FIZ1 (11724087_x_at) / RFU OASL (11726364_x_at) / Fold change /veh OASL (11726364_x_at) / RFU SOX15 (11748057_x_at) / Fold change /veh SOX15 (11748057_x_at) / RFU CD79A (11719716_a_at) / Fold change /veh CD79A (11719716_a_at) / RFU HIST1H1D (11736915_at) / Fold change /veh HIST1H1D (11736915_at) / RFU CASKIN2 (11723855_a_at) / Fold change /veh CASKIN2 (11723855_a_at) / RFU LOC730098 (11760151_x_at) / Fold change /veh LOC730098 (11760151_x_at) / RFU OR4N2 (11742367_at) / Fold change /veh OR4N2 (11742367_at) / RFU PRRT2 (11749266_a_at) / Fold change /veh PRRT2 (11749266_a_at) / RFU SNX32 (11753110_a_at) / Fold change /veh SNX32 (11753110_a_at) / RFU CDHR5 (11726645_a_at) / Fold change /veh CDHR5 (11726645_a_at) / RFU RCAN1 (11760418_a_at) / Fold change /veh RCAN1 (11760418_a_at) / RFU FAM167A (11723789_a_at) / Fold change /veh FAM167A (11723789_a_at) / RFU FAM26E (11764081_at) / Fold change /veh FAM26E (11764081_at) / RFU ISYNA1 (11749810_s_at) / Fold change /veh ISYNA1 (11749810_s_at) / RFU ACY1 (11761880_at) / Fold change /veh ACY1 (11761880_at) / RFU 11764098_at / Fold change /veh 11764098_at / RFU SAMD14 (11745864_x_at) / Fold change /veh SAMD14 (11745864_x_at) / RFU NPB (11741838_a_at) / Fold change /veh NPB (11741838_a_at) / RFU TMPRSS6 (11731388_a_at) / Fold change /veh TMPRSS6 (11731388_a_at) / RFU KRTAP10-2 (11738614_at) / Fold change /veh KRTAP10-2 (11738614_at) / RFU ARHGAP8 /// PRR5-ARHGAP8 (11727945_x_at) / Fold change /veh ARHGAP8 /// PRR5-ARHGAP8 (11727945_x_at) / RFU KRTAP5-7 /// NADSYN1 (11734609_at) / Fold change /veh KRTAP5-7 /// NADSYN1 (11734609_at) / RFU RASL12 (11751679_a_at) / Fold change /veh RASL12 (11751679_a_at) / RFU CDKN2B (11736163_a_at) / Fold change /veh CDKN2B (11736163_a_at) / RFU PRF1 (11729649_at) / Fold change /veh PRF1 (11729649_at) / RFU, ZNF638 /// ZNF638-IT1 / Fold change vs veh, ZNF638 /// ZNF638-IT1 / RFU, PANK3 / Fold change vs veh, PANK3 / RFU, SH3YL1 / Fold change vs veh, SH3YL1 / RFU, ZEB2 / Fold change vs veh, ZEB2 / RFU, NRIP1 / Fold change vs veh, NRIP1 / RFU, PTTG1IP / Fold change vs veh, PTTG1IP / RFU, CAPN2 / Fold change vs veh, CAPN2 / RFU, MED14 / Fold change vs veh, MED14 / RFU, SNORA58 / Fold change vs veh, SNORA58 / RFU, C1orf63 / Fold change vs veh, C1orf63 / RFU, LRRFIP1 / Fold change vs veh, LRRFIP1 / RFU, NDUFAF7 / Fold change vs veh, NDUFAF7 / RFU, SLC12A2 / Fold change vs veh, SLC12A2 / RFU, IBTK / Fold change vs veh, IBTK / RFU, ESF1 / Fold change vs veh, ESF1 / Fold change vs veh, TMEM50B / RFU, TAOK1 / Fold change vs veh, TAOK1 / RFU, ACBD3 / Fold change vs veh, ACBD3 / RFU, TMA16 / Fold change vs veh, TMA16 / RFU, RWDD3 / Fold change vs veh, RWDD3 / RFU, BCAT1 / Fold change vs veh, BCAT1 / RFU, EDEM3 / Fold change vs veh, EDEM3 / RFU, TMEM33 / Fold change vs veh, TMEM33 / RFU, WDR75 / Fold change vs veh, WDR75 / RFU, AHCTF1 / Fold change vs veh, AHCTF1 / RFU, TFRC / Fold change vs veh, TFRC / RFU, ZDHHC17 / Fold change vs veh, ZDHHC17 / RFU, NOM1 / Fold change vs veh, NOM1 / RFU, ARL8B / Fold change vs veh, ARL8B / RFU, ZBTB11 / Fold change vs veh, ZBTB11 / RFU, TAMM41 / Fold change vs veh, TAMM41 / RFU, KIAA1704 /// LOC100996395 / Fold change vs veh, KIAA1704 /// LOC100996395 / RFU, ING1 / Fold change vs veh, ING1 / RFU, TRMT61B / Fold change vs veh, TRMT61B / RFU, FUBP3 / Fold change vs veh, FUBP3 / RFU, TP53 / Fold change vs veh, TP53 / RFU, TNKS2 / Fold change vs veh, TNKS2 / RFU, ZFP14 / Fold change vs veh, ZFP14 / RFU, ACTR2 / Fold change vs veh, ACTR2 / RFU, PPP3R1 / Fold change vs veh, PPP3R1 / RFU, PIK3R1 / Fold change vs veh, PIK3R1 / RFU, HNRNPA1 / Fold change vs veh, HNRNPA1 / RFU, RNF170 / Fold change vs veh, RNF170 / RFU, ZNF28 / Fold change vs veh, ZNF28 / RFU, RNGTT / Fold change vs veh, RNGTT / RFU, OGT / Fold change vs veh, OGT / RFU, BRD1 / Fold change vs veh, BRD1 / RFU, MARS / Fold change vs veh, MARS / RFU, ZNF655 / Fold change vs veh, ZNF655 / RFU, FAHD1 / Fold change vs veh, FAHD1 / RFU, BDP1 / Fold change vs veh, BDP1 / RFU, LRRCC1 / Fold change vs veh, LRRCC1 / RFU, ARID1A / Fold change vs veh, ARID1A / RFU, ZNF146 / Fold change vs veh, ZNF146 / RFU, ZNF330 / Fold change vs veh, ZNF330 / RFU, GPN3 / Fold change vs veh, GPN3 / RFU, C9orf123 / Fold change vs veh, C9orf123 / RFU, N4BP2L2 / Fold change vs veh, N4BP2L2 / RFU, ARFIP1 / Fold change vs veh, ARFIP1 / RFU, FAM179B / Fold change vs veh, FAM179B / RFU, BCL10 / Fold change vs veh, BCL10 / RFU, UHRF1BP1L / Fold change vs veh, UHRF1BP1L / RFU, BET1 / Fold change vs veh, BET1 / RFU, CNOT2 / Fold change vs veh, CNOT2 / RFU, ZNF268 / Fold change vs veh, ZNF268 / Fold change vs veh, ZNF507 / RFU, DGCR2 / Fold change vs veh, DGCR2 / RFU, WDSUB1 / Fold change vs veh, WDSUB1 / Fold change vs veh, HSP90B1 /// MIR3652 / RFU, ADSS / Fold change vs veh, ADSS / RFU, GK / Fold change vs veh, GK / RFU, ZNF148 / Fold change vs veh, ZNF148 / RFU, TAF9 / Fold change vs veh, TAF9 / RFU, SLC1A5 / Fold change vs veh, SLC1A5 / RFU, SLMO2 / Fold change vs veh, SLMO2 / RFU, ABCC4 / Fold change vs veh, ABCC4 / RFU, LOC101060439 /// RAP1B / Fold change vs veh, LOC101060439 /// RAP1B / RFU, RFX7 / Fold change vs veh, RFX7 / RFU, GTPBP10 / Fold change vs veh, GTPBP10 / RFU, CNEP1R1 / Fold change vs veh, CNEP1R1 / RFU, BIVM-ERCC5 /// ERCC5 / Fold change vs veh, BIVM-ERCC5 /// ERCC5 / RFU, ILF3 / Fold change vs veh, ILF3 / RFU 11762660_at / Fold change /veh 11762660_at / RFU VCAN (11757783_s_at) / Fold change /veh VCAN (11757783_s_at) / RFU DDX43 (11728927_at) / Fold change /veh DDX43 (11728927_at) / RFU KRT8 (11758188_x_at) / Fold change /veh KRT8 (11758188_x_at) / RFU NKD1 (11759106_at) / Fold change /veh NKD1 (11759106_at) / RFU SRD5A1 (11742802_a_at) / Fold change /veh SRD5A1 (11742802_a_at) / RFU TPSAB1 /// TPSB2 (11721975_s_at) / Fold change /veh TPSAB1 /// TPSB2 (11721975_s_at) / RFU GSTM3 (11746129_a_at) / Fold change /veh GSTM3 (11746129_a_at) / RFU IL23R (11737362_x_at) / Fold change /veh IL23R (11737362_x_at) / RFU TMEM51 (11727254_a_at) / Fold change /veh TMEM51 (11727254_a_at) / RFU PIWIL2 (11732686_x_at) / Fold change /veh PIWIL2 (11732686_x_at) / RFU ORM1 (11744905_x_at) / Fold change /veh ORM1 (11744905_x_at) / RFU CCDC152 (11743942_at) / Fold change /veh CCDC152 (11743942_at) / RFU ECM1 (11717891_a_at) / Fold change /veh ECM1 (11717891_a_at) / RFU IL23R (11748794_a_at) / Fold change /veh IL23R (11748794_a_at) / RFU TNFAIP8L3 (11732012_x_at) / Fold change /veh TNFAIP8L3 (11732012_x_at) / RFU MBOAT4 (11741988_at) / Fold change /veh MBOAT4 (11741988_at) / RFU 11764193_at / Fold change /veh 11764193_at / RFU TMEM53 (11763286_at) / Fold change /veh TMEM53 (11763286_at) / RFU MAGEB2 (11727129_at) / Fold change /veh MAGEB2 (11727129_at) / RFU TMEM200A (11744735_a_at) / Fold change /veh TMEM200A (11744735_a_at) / RFU CCDC152 (11751479_a_at) / Fold change /veh CCDC152 (11751479_a_at) / RFU FAM211A (11726209_a_at) / Fold change /veh FAM211A (11726209_a_at) / RFU RGS16 (11746705_a_at) / Fold change /veh RGS16 (11746705_a_at) / RFU VCAN (11755009_s_at) / Fold change /veh VCAN (11755009_s_at) / RFU RHOB (11743442_s_at) / Fold change /veh RHOB (11743442_s_at) / RFU RGS16 (11720943_a_at) / Fold change /veh RGS16 (11720943_a_at) / RFU RGS16 (11720944_at) / Fold change /veh RGS16 (11720944_at) / RFU, VPS4B / Fold change vs veh, VPS4B / RFU, CREB1 / Fold change vs veh, CREB1 / RFU, DNAJC13 / Fold change vs veh, DNAJC13 / RFU, GNAQ / Fold change vs veh, GNAQ / RFU, CDK5R1 / Fold change vs veh, CDK5R1 / RFU, ZRANB3 / Fold change vs veh, ZRANB3 / RFU, CUL4A / Fold change vs veh, CUL4A / RFU, CCNY / Fold change vs veh, CCNY / RFU, UFL1 / Fold change vs veh, UFL1 / RFU, COG3 / Fold change vs veh, COG3 / RFU, DIAPH2 / Fold change vs veh, DIAPH2 / RFU, SKA2 / Fold change vs veh, SKA2 / RFU, AFF3 / Fold change vs veh, AFF3 / RFU, LMF1 / Fold change vs veh, LMF1 / RFU, IPO11 / Fold change vs veh, IPO11 / RFU, DFFB / Fold change vs veh, DFFB / RFU, FOXP1 / Fold change vs veh, FOXP1 / RFU, CARD8 / Fold change vs veh, CARD8 / RFU, STRN3 / Fold change vs veh, STRN3 / RFU, ADK / Fold change vs veh, ADK / RFU, RASSF2 / Fold change vs veh, RASSF2 / RFU, WIPF1 / Fold change vs veh, WIPF1 / RFU, LARP1B / Fold change vs veh, LARP1B / RFU, RASA1 / Fold change vs veh, RASA1 / RFU, RB1 / Fold change vs veh, RB1 / RFU, PPFIA1 / Fold change vs veh, PPFIA1 / RFU, MAT2A / Fold change vs veh, MAT2A / RFU, CCT5 / Fold change vs veh, CCT5 / RFU, WDR92 / Fold change vs veh, WDR92 / RFU, CUX1 / Fold change vs veh, CUX1 / RFU, TTC7A / Fold change vs veh, TTC7A / RFU, TMEM135 / Fold change vs veh, TMEM135 / RFU, DEPTOR / Fold change vs veh, DEPTOR / RFU, CPM / Fold change vs veh, CPM / RFU, DNAJB6 / Fold change vs veh, DNAJB6 / RFU, CACNA2D3 / Fold change vs veh, CACNA2D3 / RFU, DTX4 / Fold change vs veh, DTX4 / RFU, TFCP2 / Fold change vs veh, TFCP2 / RFU, GMCL1 /// GMCL1P1 / Fold change vs veh, GMCL1 /// GMCL1P1 / RFU, AEBP2 / Fold change vs veh, AEBP2 / RFU, SNHG1 /// SNORD22 /// SNORD25 /// SNORD26 /// SNORD27 /// SNORD28 /// SNORD29 /// SNORD31 / Fold change vs veh, SNHG1 /// SNORD22 /// SNORD25 /// SNORD26 /// SNORD27 /// SNORD28 /// SNORD29 /// SNORD31 / Fold change (Aza/veh), C12orf56 (ProbeSet 11735607_a_at) / Fold change (ACY-1035/veh), C12orf56 (ProbeSet 11735607_a_at) / Fold change (Aza/veh), FGFR1OP (ProbeSet 11751329_s_at) / Fold change (ACY-1035/veh), FGFR1OP (ProbeSet 11751329_s_at) / Fold change (Aza/veh), VPS36 (ProbeSet 11739960_a_at) / Fold change (ACY-1035/veh), VPS36 (ProbeSet 11739960_a_at) / RFU SYPL1 (11715823_x_at) / Fold change /veh SYPL1 (11715823_x_at) / RFU IGFBP7 (11715501_s_at) / Fold change /veh IGFBP7 (11715501_s_at) / RFU REEP3 (11722064_at) / Fold change /veh REEP3 (11722064_at) / RFU IGLL1 (11728026_x_at) / Fold change /veh IGLL1 (11728026_x_at): dose or concentration left out as unconfirmed
Conditions: MV-4-11 cells, 48 hours

Nc1ccc(-c2cccs2)cc1NC(=O)c1ccc2c(c1)cc(C1CC1)n2CCN1CCOCC1 [ACY-1035]
Fold change /veh GAP43 (11754022_s_at): 0.88

From article PMC5218480 (PLoS ONE, 2017)
